Experiments:
[1] = test system: secretion of bile; assay: Activity on the secretion of bile, intraduodenal administration; format: in vivo, Male Wister rats; settings: 5 hours
Method: A. Intraduodenal administration
Male Wister rats weighing 200 to 250 g were used, ten rats in each group. Each rat was fasted for 6 to 8 hours, and was thereafter fastened as laid on its back to a fixed table under ethereal anesthesia. The abdomen was cut open along the midline. A polyethylene tube was inserted into and attached to the common bile duct. The rat was then allowed to stand for a period of time (1 hour) to assure stabilized flow of bile. The amount of bile flowing out for the following period of 30 minutes was taken as 100 to serve as a control amount for the subsequent flow of bile.
Next, the drug to be tested was intraduodenally administered to the rat, and the amount of bile flowing out from the polyethylene tube dropwise was measured over a period of 5 hours. The amount was measured for every 30-minute period of the first 2 hours after the administration of the drug and then for every one-hour period. Sodium dehydrocholate, bile acid preparation serving as a known cholagogue, was used as a control drug.
The dose was 200 mg/kg (weight of rat) for bornyl glucoside, or 100 mg (drug)/kg (weight of rat) for other borneols and sodium dehydrocholate. The drugs were used as suspended in 4% aqueous solution of gum arabic. Experimental results

[2] = test system: secretion of bile; assay: Activity on the secretion of bile, oral administration; format: in vivo, rats; settings: 5 hours
Method: B. Oral Administration As in the case of intraduodenal administration, the drug to be tested was orally administered to rats each having a polyethylene tube attached to the common bile duct, and the amount of bile flowing out was observed over a period of 5 hours.

[3] = test system: cholesterol content of bile; assay: Variations in the cholesterol content of bile (Cholesterol CII-Test Wako); format: in vivo, rats; settings: intraduodenal, 100 mg/kg, first one-hour period, pre-administration 30 minutes = 100
Method: (§1) B. Variations in the phospholipid and cholesterol contents of bile
(§2) Portions of the bile obtained during the first one-hour period of measurement in the bile secretion experiment (1)-A by intraduodenal administration were tested for phospholipid using Phospholipid B-Test Wako (enzyme method, Wako Pure Chemical Industries Ltd.) and for cholesterol using Cholesterol CII-Test Wako measuring kit(COD-p-chlorophenol color development method, Wako Pure Chemical Industries Ltd.). For the quantitative determination of phospholipid and cholesterol, a blank test was conducted, and a calibration curve prepared in advanced was used. The phospholipid and cholesterol contents of the bile flowing out during the period of 30 minutes before the administration of the test drug were taken as 100.

[4] = test system: solids weight of bile; assay: Variations in the weight of solids in discharged bile; format: in vivo, rats; settings: intraduodenal, 100 mg/kg, 5 hours, pre-administration 30 minutes = 100
Method: A. Variations in the weight of solids in discharged bile
The bile portions obtained from the bile secretion experiment (1)-A by intraduodenal administration were collected respectively for the observation periods. A quantity of each bile portion was freeze-dried, and the solids weight was measured to determine the variations in the solids weight of bile over the 5-hour period. The solids weight of bile obtained during the 30-minute period before the administration of the test drug, e.g. (+)-borneol, was calculated as 100.

[5] = test system: bile acid contents of bile; assay: Variations in bile acid contents of bile (high-speed liquid chromatography); format: in vivo, rats; settings: intraduodenal, 100 mg/kg, first one-hour period, pre-administration 30 minutes = 100
Description: C. Variations in bile acid contents of bile
Each portion of bile obtained during the first one-hour period of measurement in the foregoing bile secretion experiment (1)-A by intraduodenal administration was partly collected, then diluted 40-fold with freshly distilled methanol and thereafter filtered with use of a 0.45-micron membrane filter (product of Toyo Roshi). The filtrate was subjected to high-speed liquid chromatography according to the method of Okuyama S. et al., Chemistry Letters, p 1443 (1979). The bile acid contents of the bile flowing out during each measurement period were determined with reference to calibration curves prepared in advance for cholic acid, ursodeoxycholic acid, chenodeoxycholic acid and deoxycholic acid, and also for glycine conjugates and taurine conjugates of these acids. The total bile acid content was determined from the results. The bile acid contents and the total bile acid content of the bile flowing out during the period of 30 minutes before the administration of the test drug were taken as 100.

[6] = test system: phospholipid content of bile; assay: Variations in the phospholipid content of bile (Phospholipid B-Test Wako); format: in vivo, rats; settings: intraduodenal, 100 mg/kg, first one-hour period, pre-administration 30 minutes = 100
Method: as §1, §2

[7] = naturally occurring, used in oriental medicine as "Ryuno"; cited from earlier work
[8] = Acute toxicity test; set-up: species or system male dd-Y mice; settings: mouse, in vivo; oral, mice, 7 days, Litchfield-Wilcoxon method, 95% reliability limit
Method: The drug to be tested was orally given to male dd-Y mice weighing about 20 g, ten mice in each group. The mice were thereafter observed for 7 days to determine the LD50 from the number of resulting deaths. During the 7-day observation period, the animals were allowed free access to diets and water. The LD50 was determined according to the Litchfield-Wilcoxon method.

CC1(C)[C@@H]2CC[C@@]1(C)[C@@H](O)C2 (relative stereo) [(±)-borneol]
cholagogic effect (amount of bile flowing out) ([1]; 100 mg/kg): also had a cholagogic effect

CC1(C)[C@@H]2CC[C@@]1(C)[C@H](O)C2 (relative stereo) [isoborneol]
cholagogic effect (amount of bile flowing out) ([1]; 100 mg/kg): also had a cholagogic effect

CC1(C)[C@@H]2CC[C@@]1(C)[C@@H](O)C2 [(+)-borneol]
cholagogic effect (amount of bile flowing out) [2]: more sustained greater cholagogic effect than the control drug
cholesterol content of bile [3]: approximately at the same level as those of the normal bile
variations in the solids weight of bile [4]: sustained effect to increase the amount of biliary constituents
bile acid contents of bile [5]: secretion of remarkably increased amounts of chenodeoxylic acid and like bile acids
total bile acid content of bile [5]: remarkable increase in the total bile acid content
cholagogic effect (amount of bile flowing out) ([1]; 100 mg/kg): sustained great cholagogic effect over the entire observation period of 5 hours
phospholipid content of bile [6]: approximately at the same level as those of the normal bile
empirically known pharmacological activities [7]: analgesic, anti-inflammatory, sedative and anti-palpitation effects and central depressant activity
LD50 at 168 h [8]: ≥ 10000 mg/kg

CC1(C)[C@H]2CC[C@]1(C)[C@H](O)C2 [(-)-borneol]
cholagogic effect (amount of bile flowing out) ([1]; 100 mg/kg): also had a cholagogic effect

CC(=O)OC1CC2CCC1(C)C2(C)C (centres unmarked) [bornyl acetate]
cholagogic effect (amount of bile flowing out) ([1]; 100 mg/kg): also had a cholagogic effect

CC1(C)C2CCC1(C)C(OC1O[C@H](CO)[C@@H](O)[C@H](O)[C@H]1O)C2 (some centres unmarked) [bornyl glucoside]
cholagogic effect (amount of bile flowing out) ([1]; 200 mg/kg (bornyl glucoside)): also had a cholagogic effect

CC(=O)O[C@@H]1C[C@H]2CC[C@]1(C)C2(C)C [isobornyl acetate]
cholagogic effect (amount of bile flowing out) ([1]; 100 mg/kg): also had a cholagogic effect

C[C@H](CCC(=O)O)[C@H]1CC[C@H]2[C@@H]3C(=O)C[C@@H]4CC(=O)CC[C@]4(C)[C@H]3CC(=O)[C@]12C [sodium dehydrocholate, reference compound]
cholesterol content of bile [3]: tendency for the phospholipid and cholesterol contents of bile to increase
bile acid contents of bile [5]: slight transient tendency to produce increased amounts of bile acids including deoxycholic acid only 30 minutes after the administration
cholagogic effect (amount of bile flowing out) ([1]; 100 mg/kg): transient great cholagogic effect 30 minutes after the administration
phospholipid content of bile [6]: tendency for the phospholipid and cholesterol contents of bile to increase
LD50 at 168 h [8]: 2500 mg/kg

— patent publication US4931475A, “Cholagogue and/or gallstone solubilizer” (Hiya Pharmaceutical Co., Ltd., priority 1985, dated 1990)
